Reference: ChEMBL document CHEMBL5331051, “Cationic, amphipathic small molecules based on a triazine-piperazine-triazine scaffold as a new class of antimicrobial agents” (Eur J Med Chem, 2022)
Values after ≈ are worked out from the molar mass of the structure shown. Active and inactive are the calls of the source. The rule behind the calls is not given here.

Key:
Staphylococcus aureus [1] = experiment: Antibacterial activity against Staphylococcus aureus KCTC 1621 strain assessed as bacterial growth inhibition measured at 18 to 24 hrs in presence of 150 mM NaCl by microdilution assay; assay type: functional; conditions: time 18-24 hrs
Enterococcus faecium = experiment: Antibacterial activity against vancomycin-resistant Enterococcus faecium ATCC 51559 strain assessed as bacterial growth inhibition measured at 18 to 24 hrs by microdilution assay; assay type: functional; conditions: time 18-24 hrs
Pseudomonas aeruginosa [2] = experiment: Synergistic antibacterial activity against multidrug-resistant Pseudomonas aeruginosa CCARM 2095 strain assessed as chloramphenicol MIC by checkerboard assay; assay type: functional
Pseudomonas aeruginosa [3] = experiment: Synergistic antibacterial activity against multidrug-resistant Pseudomonas aeruginosa CCARM 2095 strain assessed as bacterial growth inhibition in presence of oxacillin by checkerboard assay; assay type: functional
Staphylococcus aureus [4] = experiment: Synergistic antibacterial activity against multidrug-resistant Staphylococcus aureus CCARM 3089 strain assessed as ciprofloxacin fractional inhibitory concentration by checkerboard assay; assay type: functional
Escherichia coli [5] = experiment: Antibacterial activity against Escherichia coli KCTC 1682 strain assessed as bacterial growth inhibition measured at 18 to 24 hrs in presence of 2.5 mM CaCl2 by microdilution assay; assay type: functional; conditions: time 18-24 hrs
Staphylococcus aureus [6] = experiment: Additive antibacterial activity against multidrug-resistant Staphylococcus aureus CCARM 3089 strain assessed as ciprofloxacin fractional inhibitory concentration by checkerboard assay; assay type: functional
Pseudomonas aeruginosa [7] = experiment: Synergistic antibacterial activity against multidrug-resistant Pseudomonas aeruginosa CCARM 2095 strain assessed as oxacillin MIC by checkerboard assay; assay type: functional
Escherichia coli [8] = experiment: Antibacterial activity against Escherichia coli KCTC 1682 strain assessed as bacterial growth inhibition measured at 18 to 24 hrs in presence of 150 mM NaCl by microdilution assay; assay type: functional; conditions: time 18-24 hrs
Staphylococcus aureus [9] = experiment: Antibacterial activity against methicillin-resistant Staphylococcus aureus CCARM 3090 strain assessed as bacterial growth inhibition measured at 18 to 24 hrs by microdilution assay; assay type: functional; conditions: time 18-24 hrs
Cell membrane [10] = experiment: Induction of cell membrane damage in Escherichia coli KCTC 1682 assessed as increase in fluorescent intensity at 2 times MIC incubated for 30 mins by PI staining based flow cytometry assay (reference value: 9.79 %); assay type: subcellular
Staphylococcus aureus [11] = experiment: Synergistic antibacterial activity against multidrug-resistant Staphylococcus aureus CCARM 3089 strain assessed as fractional inhibitory concentration index in presence of ciprofloxacin by checkerboard assay; assay type: functional
Escherichia coli [12] = experiment: Antibacterial activity against Escherichia coli KCTC 1682 strain assessed as bacterial growth inhibition measured after 6 hrs in presence of pepsin by radial diffusion assay; assay type: functional, organism-based
DNA = experiment: Binding affinity to plasmid DNA (unknown origin) assessed as retardation of DNA migration at 4 to 8 ug/ml incubated for 1 hr by agarose gel electrophoresis method; assay type: nucleic-acid assay; conditions: dose 4-8 µg/ml
RAW264.7 [13] = experiment: Antiinflammatory activity in LPS-induced mouse RAW264.7 cells assessed as reduction in NO production at 5 ug/ml measured after 72 hrs by ELISA assay relative to control; assay type: functional
Staphylococcus aureus [14] = experiment: Antibacterial activity against Staphylococcus aureus KCTC 1621 strain assessed as bacterial growth inhibition measured at 18 to 24 hrs in presence of 20% human serum by microdilution assay; assay type: functional; conditions: time 18-24 hrs
Staphylococcus aureus [15] = experiment: Antibacterial activity against methicillin-resistant Staphylococcus aureus CCARM 3089 strain assessed as bacterial growth inhibition measured at 18 to 24 hrs by microdilution assay; assay type: functional; conditions: time 18-24 hrs
Escherichia coli [16] = experiment: Antibacterial activity against Escherichia coli KCTC 1682 strain assessed as bacterial growth inhibition measured at 18 to 24 hrs in presence of 20% human serum by microdilution assay; assay type: functional; conditions: time 18-24 hrs
RAW264.7 [17] = experiment: Antiinflammatory activity in LPS-induced mouse RAW264.7 cells assessed as reduction in iNOS mRNA expression level at 5 ug/ml measured after 18 hrs by RT-PCR assay relative to control; assay type: functional, cell-based; conditions: dose 5.0 µg/ml
Cell membrane [18] = experiment: Induction of outer membrane permeabilization in Escherichia coli KCTC 1682 assessed as increase in fluorescence intensity at 2 to 8 ug/ml by NPN staining based analysis; conditions: dose 2-8 µg/ml
Pseudomonas aeruginosa [19] = experiment: Synergistic antibacterial activity against multidrug-resistant Pseudomonas aeruginosa CCARM 2095 strain assessed as chloramphenicol fractional inhibitory concentration by checkerboard assay; assay type: functional
Staphylococcus aureus [20] = experiment: Antibacterial activity against Staphylococcus aureus KCTC 1621 strain assessed as bacterial growth inhibition measured at 18 to 24 hrs in presence of 1 mM MgCl2 by microdilution assay; assay type: functional; conditions: time 18-24 hrs
Cell membrane [21] = experiment: Induction of inner membrane permeabilization in Escherichia coli ML-35 assessed as increase in […] at 2 times MIC by ONPG staining based analysis
Pseudomonas aeruginosa [22] = experiment: Synergistic antibacterial activity against multidrug-resistant Pseudomonas aeruginosa CCARM 2095 strain assessed as bacterial growth inhibition in presence of chloramphenicol by checkerboard assay; assay type: functional
Pseudomonas aeruginosa [23] = experiment: Antibacterial activity against multidrug-resistant Pseudomonas aeruginosa CCARM 2109 strain assessed as bacterial growth inhibition measured at 18 to 24 hrs by microdilution assay; assay type: functional; conditions: time 18-24 hrs
Pseudomonas aeruginosa [24] = experiment: Synergistic antibacterial activity against multidrug-resistant Pseudomonas aeruginosa CCARM 2095 strain assessed as bacterial growth inhibition by checkerboard assay; assay type: functional
Staphylococcus aureus [25] = experiment: Synergistic antibacterial activity against methicillin-resistant Staphylococcus aureus CCARM 3089 strain assessed as ciprofloxacin MIC by checkerboard assay; assay type: functional
Pseudomonas aeruginosa [26] = experiment: Antibacterial activity against multidrug-resistant Pseudomonas aeruginosa CCARM 2095 strain assessed as bacterial growth inhibition measured at 18 to 24 hrs by microdilution assay; assay type: functional; conditions: time 18-24 hrs
Cell membrane [27] = experiment: Induction of cell membrane depolarization in Staphylococcus aureus assessed as increase in fluorescence intensity at 2 times MIC by SYTOX green staining based analysis
Staphylococcus aureus [28] = experiment: Antibacterial activity against methicillin-resistant Staphylococcus aureus CCARM 3095 strain assessed as bacterial growth inhibition measured at 18 to 24 hrs by microdilution assay; assay type: functional; conditions: time 18-24 hrs
Staphylococcus aureus [29] = experiment: Synergistic antibacterial activity against methicillin-resistant Staphylococcus aureus CCARM 3089 strain assessed as fractional inhibitory concentration in presence of oxacillin by checkerboard assay; assay type: functional
Staphylococcus aureus [30] = experiment: Synergistic antibacterial activity against methicillin-resistant Staphylococcus aureus CCARM 3089 strain assessed as oxacillin MIC by checkerboard assay; assay type: functional
Staphylococcus aureus [31] = experiment: Antibacterial activity against Staphylococcus aureus KCTC 1621 strain assessed as bacterial growth inhibition measured at 18 to 24 hrs in presence of 6 uM NH4Cl by microdilution assay; assay type: functional; conditions: time 18-24 hrs
RAW264.7 [32] = experiment: Antiinflammatory activity in LPS-induced mouse RAW264.7 cells assessed as reduction in TNF alpha level at 20 ug/ml measured after 72 hrs by ELISA assay relative to control; assay type: functional
Escherichia coli [33] = experiment: Antibacterial activity against Escherichia coli KCTC 1682 strain assessed as bacterial growth inhibition measured at 18 to 24 hrs in presence of 1 mM MgCl2 by microdilution assay; assay type: functional; conditions: time 18-24 hrs
Staphylococcus aureus [34] = experiment: Additive antibacterial activity against methicillin-resistant Staphylococcus aureus CCARM 3089 strain assessed as chloramphenicol MIC by checkerboard assay; assay type: functional
Staphylococcus aureus [35] = experiment: Additive antibacterial activity against methicillin-resistant Staphylococcus aureus CCARM 3089 strain assessed as bacterial growth inhibition in presence of chloramphenicol by checkerboard assay; assay type: functional
Staphylococcus aureus [36] = experiment: Additive antibacterial activity against multidrug-resistant Staphylococcus aureus CCARM 3089 strain assessed as fractional inhibitory concentration index in presence of chloramphenicol by checkerboard assay; assay type: functional

| SMILES | MIC (Staphylococcus aureus [1]) [µM] | MIC (Enterococcus faecium) [µM] | MIC (Escherichia coli [5]) [µM] | MIC (Escherichia coli [8]) [µM] | MIC (Staphylococcus aureus [9]) [µM] | Flu intensity (Cell membrane [10]) [%] | Activity (Escherichia coli [12]) | Activity (DNA) | MIC (Staphylococcus aureus [14]) [µM] | MIC (Staphylococcus aureus [15]) [µM] | MIC (Escherichia coli [16]) [µM] | Activity (RAW264.7 [17]) | Activity (Cell membrane [18]) | MIC (Staphylococcus aureus [20]) [µM] | Activity (Cell membrane [21]) | MIC (Pseudomonas aeruginosa [23]) [µM] | MIC (Pseudomonas aeruginosa [26]) [µM] | Activity (Cell membrane [27]) | MIC (Staphylococcus aureus [28]) [µM] | MIC (Staphylococcus aureus [31]) [µM] | also measured |
| --- | --- | --- | --- | --- | --- | --- | --- | --- | --- | --- | --- | --- | --- | --- | --- | --- | --- | --- | --- | --- | --- |
| NCCCN(CCCN)c1nc(NCc2ccccc2)nc(N2CC(Cc3ccccc3)N(c3nc(NCc4ccccc4)nc(N(CCCN)CCCN)n3)CC2Cc2ccccc2)n1 (stereo not drawn) | 2.5 | 10 (≈ 8.93 µg/mL) | 5 | 2.5 | 2.8 (≈ 2.5 µg/mL) | 3.03 | Active | Active | 10 | 5 (≈ 4.47 µg/mL) | 10 | Active | inactive | 10 | inactive | 10 (≈ 8.93 µg/mL) | 20 (≈ 17.9 µg/mL) | inactive | 5 (≈ 4.47 µg/mL) | 5 | MIC (Pseudomonas aeruginosa [2]): 128 µg/mL; MIC (Pseudomonas aeruginosa [3]): 4 µg/mL; FIC (Staphylococcus aureus [4]): 0.125; FIC (Staphylococcus aureus [6]): 0.125; MIC (Pseudomonas aeruginosa [7]): 256 µg/mL; fractional inhibitory concentration index (FICI) (Staphylococcus aureus [11]): 0.375; inhibition at 5 µg/mL (RAW264.7 [13]): 75.7%; FIC (Pseudomonas aeruginosa [19]): 0.125; MIC (Pseudomonas aeruginosa [22]): 4 µg/mL; MIC (Pseudomonas aeruginosa [24]): 16 µg/mL; MIC (Staphylococcus aureus [25]): 64 µg/mL; FIC (Staphylococcus aureus [29]): 0.25; MIC (Staphylococcus aureus [30]): 128 µg/mL; inhibition at 20 µg/mL (RAW264.7 [32]): 95.4%; MIC (Escherichia coli [33]): 5 µM |
| N=C(N)NCCNc1nc(NCCNC(=N)N)nc(N2CC(Cc3ccccc3)N(c3nc(NCCNC(=N)N)nc(NCCNC(=N)N)n3)CC2Cc2ccccc2)n1 (stereo not drawn) | 4.8 | 38.7 (≈ 31.9 µg/mL) | 9.7 | 9.7 | 4.8 (≈ 3.96 µg/mL) | 2.55 | Active | Active | 9.6 | 9.7 (≈ 8 µg/mL) | 9.7 | Active | inactive | 9.6 | inactive | 19.4 (≈ 16 µg/mL) | 19.4 (≈ 16 µg/mL) | inactive | 9.7 (≈ 8 µg/mL) | 4.8 | MIC (Staphylococcus aureus [34]): 128 µg/mL; inhibition at 5 µg/mL (RAW264.7 [13]): 68.1%; MIC (Staphylococcus aureus [35]): 4 µg/mL; fractional inhibitory concentration index (FICI) (Staphylococcus aureus [36]): 0.75; inhibition at 20 µg/mL (RAW264.7 [32]): 99.8%; MIC (Escherichia coli [33]): 9.7 µM |
| NCCN(CCN)c1nc(NCc2ccccc2)nc(N2CC(Cc3ccccc3)N(c3nc(NCc4ccccc4)nc(N(CCN)CCN)n3)CC2Cc2ccccc2)n1 (stereo not drawn) | 5.4 | 21.4 (≈ 17.9 µg/mL) | 5.4 | 5.4 | 5.4 (≈ 4.52 µg/mL) | 10.5 | Active | Active | 10.8 | 5.4 (≈ 4.52 µg/mL) | 5.4 | Active | inactive | 5.4 | inactive | 10.7 (≈ 8.96 µg/mL) | 21.4 (≈ 17.9 µg/mL) | inactive | 5.4 (≈ 4.52 µg/mL) | 5.4 | MIC (Pseudomonas aeruginosa [2]): 256 µg/mL; MIC (Pseudomonas aeruginosa [3]): 4 µg/mL; FIC (Staphylococcus aureus [4]): 0.125; FIC (Staphylococcus aureus [6]): 0.125; MIC (Pseudomonas aeruginosa [7]): 128 µg/mL; fractional inhibitory concentration index (FICI) (Staphylococcus aureus [11]): 0.375; FIC (Pseudomonas aeruginosa [19]): 0.25; MIC (Pseudomonas aeruginosa [22]): 4 µg/mL; MIC (Pseudomonas aeruginosa [24]): 16 µg/mL; MIC (Staphylococcus aureus [25]): 64 µg/mL; FIC (Staphylococcus aureus [29]): 0.25; MIC (Staphylococcus aureus [30]): 256 µg/mL; inhibition at 20 µg/mL (RAW264.7 [32]): 95.6%; MIC (Escherichia coli [33]): 10.8 µM |
| NCCNc1nc(NCCN)nc(N2CC(Cc3ccccc3)N(c3nc(NCCN)nc(NCCN)n3)CC2Cc2ccccc2)n1 (stereo not drawn) | 6.1 | 24.3 (≈ 16 µg/mL) | 6.1 | 6.1 | 3 (≈ 1.97 µg/mL) | 8.57 | Active | Active | 12.2 | 48.6 (≈ 31.9 µg/mL) | 12.2 | Active | inactive | 6.1 | inactive | 24.3 (≈ 16 µg/mL) | 24.3 (≈ 16 µg/mL) | inactive | 12.2 (≈ 8.01 µg/mL) | 6.1 | MIC (Staphylococcus aureus [34]): 128 µg/mL; inhibition at 5 µg/mL (RAW264.7 [13]): 31.5%; MIC (Staphylococcus aureus [35]): 16 µg/mL; fractional inhibitory concentration index (FICI) (Staphylococcus aureus [36]): 0.75; FIC (Staphylococcus aureus [29]): 0.25; MIC (Staphylococcus aureus [30]): 256 µg/mL; inhibition at 20 µg/mL (RAW264.7 [32]): 72.4%; MIC (Escherichia coli [33]): 6.1 µM |
